Data taken from patent publication US5914319A, “Antithrombotic agents” (Eli Lilly and Company, priority 1995, dated 1999).
Structures can show the parent of a compound that is named as a salt.

Assays:
Format in all cases: biochemical
Human plasma [1] = experiment: Human plasma anticoagulation, thrombin time (TT); settings: concentration required to double the thrombin time, linear extrapolation
How it was run: (§1)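 Compounds added across a wide concentration range to plasma; PT measured with Thromboplastin-C, APTT after 120 s Actin incubation then 0.02 M CaCl2, TT with bovine thrombin (10 NIH units/mL). Clotting-time doubling concentrations estimated by linear extrapolation.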

human thrombin = human thrombin (Homo sapiens, UniProt P00734); experiment: Inhibition of the amidase activity of thrombin (Kass); settings: mean over a range of test compound concentrations; […]
Human plasma [2] = experiment: Human plasma anticoagulation, prothrombin time (PT); settings: concentration required to double the PT, linear extrapolation
How it was run: as §1

Human plasma [3] = experiment: Human plasma anticoagulation, activated partial thromboplastin time (APTT); settings: concentration required to double the APTT, linear extrapolation
How it was run: as §1

Kass × 10^6 (L/mole) Human Thrombin (human thrombin)	Molecule	Human Plasma Anticoagulation 2× Clotting time (ng/mL) TT (Human plasma [1])	Human Plasma Anticoagulation 2× Clotting time (ng/mL) PT (Human plasma [2])	Human Plasma Anticoagulation 2× Clotting time (ng/mL) APTT (Human plasma [3])
13. × 10^6 L/mole	NMI-D-Phe-Pro-Agm.HCl [Example 4]	230 ng/mL	–	–
–	Cl.O=C(O)CN[C@H](CC1CCCCC1)C(=O)N1CCC[C@H]1C(=O)NCCC1=CCNCC1 [Example 59, HO2 CCH2 -D-Cha-Pro-4-NHCH2 CH2 -3,4-dehydropiperidine.HCl]	420 ng/mL	7,000 ng/mL	5,500 ng/mL
–	Cl.N=C(N)N1CC=C(CNC(=O)[C@@H]2CCCN2C(=O)[C@@H](CC2CCCCC2)NCC(=O)O)CC1 [Example 70, HO2 CCH2 -D-Cha-Pro-4-NHCH2 -1-amidino-3,4-dehydro-piperidine.HCl]	2 ng/mL	180 ng/mL	160 ng/mL
–	NCc1ccc(CNC(=O)[C@@H]2CCCN2C(=O)[C@@H](CC2CCCCC2)NCC(=O)O)cc1 [Example 78, HO2 CCH2 -D-Cha-Pro-4-NHCH2 C6 H4 CH2 NH2.HCl]	46 ng/mL	760 ng/mL	430 ng/mL
–	N=C(N)c1ccc(CNC(=O)[C@@H]2CCCN2C(=O)[C@@H](CC2CCCCC2)NCCCC(=O)O)cc1 [Example 85, HOOCCH2 CH2 CH2 -D-Cha-Pro-p-NHCH2 C6 H4 C(NH)NH2.HCl]	4.9 ng/mL	197 ng/mL	100 ng/mL
–	CCC(CC)C(=O)N[C@@H](CCS(C)(=O)=O)C(=O)N1CCC[C@H]1C(=O)NCc1ccc(C(=N)N)cc1 [Example 91, (C2 H5)2 CHCO-Met(O2)-Pro-p-NHCH2 C6 H4 C(NH)NH2.HCl]	63 ng/mL	3,500 ng/mL	3,000 ng/mL
–	N=C(N)Nc1ccc(CNC(=O)[C@@H]2CCCN2C(=O)[C@@H]2NCC[C@@H]3CCCC[C@@H]32)cc1 [Example 38, D-1-Piq-Pro-p-NHCH2 C6 H4 NHC(NH)NH2.2HCl]	540 ng/mL	11,100 ng/mL	6,100 ng/mL
–	HOOCCH2 -D-Phe-Pro-p-NHCH2 C6 H4 C(NH)NH2.HCl [Example 46]	2. ng/mL	77 ng/mL	67 ng/mL
–	EtSO2 -D-Phe-Pro-p-NHCH2 CH2 C6 H4 CNH(NH)NH2.HCl [Example 35]	4,500 ng/mL	78,400 ng/mL	50,400 ng/mL
–	N=C(N)c1ccc(CNC(=O)[C@@H]2CCCN2C(=O)[C@H]2C[C@H]3CCCC[C@H]3CN2)cc1 [Example 19, D-3-Piq-Pro-p-NHCH2 C6 H4 C(NH)NH2.3HCl]	58 ng/mL	540 ng/mL	300 ng/mL
–	CCS(=O)(=O)N[C@H](CC1CCCCC1)C(=O)N1CCC[C@H]1C(=O)NCc1ccc(CN)cc1 [Example 81, EtSO2 -D-Cha-Pro-4-NHCH2 C6 H4 CH2 NH2.HCl]	110 ng/mL	2,700 ng/mL	1,500 ng/mL
–	Cl.N=C(N)c1ccc(CNC(=O)[C@@H]2CCCN2C(=O)[C@@H](CC2CCCCC2)NCC(=O)O)nn1 [Example 69, HO2 CCH2 -D-Cha-Pro-3-NHCH2 -6-amidinopyridazine.HCl]	5. ng/mL	220 ng/mL	110 ng/mL
